Laboratory results from patent US11420958B2, “Aryl and heteroaryl substituted indole compounds” (BRISTOL-MYERS SQUIBB COMPANY, priority 2017, dated 2022).

What was measured:
Format in all cases: cell-based
human TLR7 = human TLR7 (Homo sapiens (Human), UniProt Q9NYK1); assay: TLR7 inhibition reporter assay (HEK-Blue, SEAP); conditions: HEK-Blue cells overexpressing human TLR7, gardiquimod 7.5 μM stimulation
Outline: (§1)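 Cells are treated with compound over a 0.05 nM–50 μM final range for 30 min at room temperature before agonist addition: gardiquimod at 7.5 μM for TLR7, R848 at 15.9 μM for TLR8, ODN2006 at 5 nM for TLR9. SEAP is measured after 22 h at 37 °C.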

human TLR8 = human TLR8 (Homo sapiens (Human), UniProt Q9NR97); assay: TLR8 inhibition reporter assay (HEK-Blue, SEAP); conditions: HEK-Blue cells overexpressing human TLR8, R848 15.9 μM stimulation
human TLR8, sequence (Q9NR97 27-1041): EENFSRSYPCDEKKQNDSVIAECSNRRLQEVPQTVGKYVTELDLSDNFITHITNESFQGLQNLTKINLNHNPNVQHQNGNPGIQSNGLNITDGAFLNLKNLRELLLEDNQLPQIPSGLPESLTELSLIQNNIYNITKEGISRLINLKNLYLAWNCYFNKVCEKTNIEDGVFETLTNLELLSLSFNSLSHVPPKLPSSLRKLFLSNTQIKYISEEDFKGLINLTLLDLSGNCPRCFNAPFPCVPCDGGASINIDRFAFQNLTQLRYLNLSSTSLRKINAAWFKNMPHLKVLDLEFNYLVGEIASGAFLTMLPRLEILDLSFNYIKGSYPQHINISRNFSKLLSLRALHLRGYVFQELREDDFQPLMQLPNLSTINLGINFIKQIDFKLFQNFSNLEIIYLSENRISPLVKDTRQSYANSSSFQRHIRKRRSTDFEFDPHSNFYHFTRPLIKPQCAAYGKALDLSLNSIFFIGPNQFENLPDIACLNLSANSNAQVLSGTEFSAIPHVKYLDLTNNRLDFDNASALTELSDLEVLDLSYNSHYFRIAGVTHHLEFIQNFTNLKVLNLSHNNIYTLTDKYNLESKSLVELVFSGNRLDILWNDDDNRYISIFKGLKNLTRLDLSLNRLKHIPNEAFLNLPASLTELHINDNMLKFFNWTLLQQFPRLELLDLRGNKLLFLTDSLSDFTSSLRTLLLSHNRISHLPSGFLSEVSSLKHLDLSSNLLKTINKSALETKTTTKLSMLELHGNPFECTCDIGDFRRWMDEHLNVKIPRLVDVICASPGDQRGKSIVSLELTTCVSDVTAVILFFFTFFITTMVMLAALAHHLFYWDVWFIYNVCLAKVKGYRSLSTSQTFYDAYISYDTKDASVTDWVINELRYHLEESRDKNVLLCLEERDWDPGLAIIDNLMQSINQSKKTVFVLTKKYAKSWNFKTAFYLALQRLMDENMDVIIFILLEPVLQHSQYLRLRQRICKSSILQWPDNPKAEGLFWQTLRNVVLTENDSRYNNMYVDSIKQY
Outline: as §1

human TLR9 = human TLR9 (Homo sapiens (Human), UniProt Q9NR96); assay: TLR9 inhibition reporter assay (HEK-Blue, SEAP); conditions: HEK-Blue cells overexpressing human TLR9, ODN2006 5 nM stimulation
human TLR9, sequence (Q9NR96 26-1032): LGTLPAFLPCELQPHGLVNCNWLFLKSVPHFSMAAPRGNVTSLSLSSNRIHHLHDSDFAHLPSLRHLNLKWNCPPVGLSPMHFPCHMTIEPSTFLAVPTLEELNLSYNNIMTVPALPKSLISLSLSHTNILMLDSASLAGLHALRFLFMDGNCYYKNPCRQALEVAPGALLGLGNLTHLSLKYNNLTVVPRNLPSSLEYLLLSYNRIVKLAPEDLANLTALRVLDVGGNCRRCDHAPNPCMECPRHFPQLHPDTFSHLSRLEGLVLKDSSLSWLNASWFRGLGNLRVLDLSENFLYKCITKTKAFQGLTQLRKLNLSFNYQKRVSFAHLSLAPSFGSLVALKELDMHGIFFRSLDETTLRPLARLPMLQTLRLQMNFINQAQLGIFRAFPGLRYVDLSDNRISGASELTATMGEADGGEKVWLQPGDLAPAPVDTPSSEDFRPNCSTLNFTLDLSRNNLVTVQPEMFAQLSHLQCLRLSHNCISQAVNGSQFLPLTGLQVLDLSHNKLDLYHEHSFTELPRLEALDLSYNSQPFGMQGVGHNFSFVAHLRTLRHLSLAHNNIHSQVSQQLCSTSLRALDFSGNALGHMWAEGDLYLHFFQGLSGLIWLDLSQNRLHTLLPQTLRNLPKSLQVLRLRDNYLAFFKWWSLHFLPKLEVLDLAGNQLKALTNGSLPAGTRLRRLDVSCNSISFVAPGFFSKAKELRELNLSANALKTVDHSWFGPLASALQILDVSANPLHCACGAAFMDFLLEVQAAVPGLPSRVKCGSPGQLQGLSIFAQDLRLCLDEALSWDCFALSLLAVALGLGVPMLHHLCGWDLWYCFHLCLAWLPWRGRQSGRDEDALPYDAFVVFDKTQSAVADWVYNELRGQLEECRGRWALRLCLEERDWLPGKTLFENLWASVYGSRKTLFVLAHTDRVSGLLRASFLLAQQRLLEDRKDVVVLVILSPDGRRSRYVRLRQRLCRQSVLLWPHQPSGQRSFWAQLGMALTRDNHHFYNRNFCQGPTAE
Outline: as §1

human TLR7, sequence (Q9NYK1 27-1049): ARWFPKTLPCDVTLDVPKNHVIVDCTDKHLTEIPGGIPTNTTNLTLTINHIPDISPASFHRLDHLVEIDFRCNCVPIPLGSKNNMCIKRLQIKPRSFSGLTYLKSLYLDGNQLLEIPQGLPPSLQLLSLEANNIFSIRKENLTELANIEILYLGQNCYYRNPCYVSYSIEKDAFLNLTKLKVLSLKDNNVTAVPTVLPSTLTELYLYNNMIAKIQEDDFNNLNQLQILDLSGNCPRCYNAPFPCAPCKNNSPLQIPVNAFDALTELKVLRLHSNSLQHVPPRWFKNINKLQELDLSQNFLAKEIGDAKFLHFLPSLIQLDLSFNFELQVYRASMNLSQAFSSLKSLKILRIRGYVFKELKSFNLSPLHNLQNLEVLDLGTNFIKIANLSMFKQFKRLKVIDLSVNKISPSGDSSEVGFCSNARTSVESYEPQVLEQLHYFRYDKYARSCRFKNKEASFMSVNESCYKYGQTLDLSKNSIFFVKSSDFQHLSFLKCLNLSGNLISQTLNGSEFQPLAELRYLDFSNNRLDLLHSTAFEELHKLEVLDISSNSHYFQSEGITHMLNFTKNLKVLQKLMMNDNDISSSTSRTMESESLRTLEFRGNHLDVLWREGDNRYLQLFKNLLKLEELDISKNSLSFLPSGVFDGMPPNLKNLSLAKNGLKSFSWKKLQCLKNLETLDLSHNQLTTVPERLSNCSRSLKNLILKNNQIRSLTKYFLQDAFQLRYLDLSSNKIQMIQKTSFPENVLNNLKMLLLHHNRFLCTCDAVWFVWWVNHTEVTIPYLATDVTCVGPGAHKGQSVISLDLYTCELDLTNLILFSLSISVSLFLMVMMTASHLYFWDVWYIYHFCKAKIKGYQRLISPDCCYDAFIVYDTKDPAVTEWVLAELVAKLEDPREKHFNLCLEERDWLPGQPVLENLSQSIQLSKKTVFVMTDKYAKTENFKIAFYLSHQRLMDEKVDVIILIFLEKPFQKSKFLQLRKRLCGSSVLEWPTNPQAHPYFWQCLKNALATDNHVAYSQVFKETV

SMILES | IC50 (human TLR7) [nM] | IC50 (human TLR8) [nM] | IC50 (human TLR9) [nM]
COc1ccc(-c2[nH]c3ccc(-c4nnc(C5CCCN(C)C5)o4)cc3c2C(C)C)cc1OC (stereo not drawn) [Example 46, 2-(2-(3,4-dimethoxyphenyl)-3-isopropyl-1H-indol-5-yl)-5-(1-methylpiperidin-3-yl)-1,3,4-oxadiazole] | 39 | 6.2 | 1080
CNC(=O)CN1CCCC(c2nnc(-c3ccc4[nH]c(-c5ccnc(C)c5)c(C(C)C)c4c3)[nH]2)C1 (stereo not drawn) [Example 175, 2-(3-(5-(3-isopropyl-2-(2-methylpyridin-4-yl)-1H-indol-5-yl)-4H-1,2,4-triazol-3-yl)piperidin-1-yl)-N-methylacetamide] | 560 | 7.4 | > 50000
CC(C)c1c(-c2ccnc3[nH]ncc23)[nH]c2ccc(-c3cccnc3)cc12 [Example 467, 4-(3-isopropyl-5-(pyridin-3-yl)-1H-indol-2-yl)-1H-pyrazolo[3,4-b]pyridine] | 208 | 18 | 24200
COc1ccc(-c2[nH]c3ccc(-c4nnc(C(=O)N(C)CCCN(C)C)o4)cc3c2C(C)C)cc1OC [Example 96, 5-(2-(3,4-dimethoxyphenyl)-3-isopropyl-1H-indol-5-yl)-N-(3-(dimethylamino)propyl)-N-methyl-1,3,4-oxadiazole-2-carboxamide] | 49 | 4.6 | 1220
Cc1cc(-c2[nH]c3ccc(-c4cc5c(s4)CN(C(=O)C4CC(=O)N(C)C4)CC5)cc3c2C(C)C)cc(C)n1 (stereo not drawn) [Example 352, 4-(2-(2-(2,6-dimethylpyridin-4-yl)-3-isopropyl-1H-indol-5-yl)-4,5,6,7-tetrahydrothieno[2,3-c]pyridine-6-carbonyl)-1-methylpyrrolidin-2-one] | 143 | 49 | 20400
Cc1cc(-c2[nH]c3ccc(-c4nnc(CC(F)(F)F)o4)cc3c2C(C)C)ccn1 [Example 75, 2-(3-isopropyl-2-(2-methylpyridin-4-yl)-1H-indol-5-yl)-5-(2,2,2-trifluoroethyl)-1,3,4-oxadiazole] | 576 | 72 | > 50000
Cc1cc(-c2[nH]c3ccc(-c4ccc(NC(=O)[C@H]5CCNC5)nc4)cc3c2C(C)C)ccn1 [Example 207, (S)—N-(5-(3-isopropyl-2-(2-methylpyridin-4-yl)-1H-indol-5-yl)pyridin-2-yl)pyrrolidine-3-carboxamide] | 83 | 14 | 1650
COc1ccc(-c2[nH]c3ccc(-c4cccc(C(=O)N5CC6CNCC6C5)c4)cc3c2C(C)C)cc1OC (stereo not drawn) [Example 9, (3-(2-(3,4-dimethoxyphenyl)-3-isopropyl-1H-indol-5-yl)phenyl)(hexahydropyrrolo[3,4-c]pyrrol-2(1H)-yl)methanone] | 108 | 4.1 | 744
Cc1cc(-c2[nH]c3ccc(-c4nnc(C5CCNCC5)[nH]4)cc3c2C(C)C)ccn1 [Example 196, 3-isopropyl-2-(2-methylpyridin-4-yl)-5-(5-(piperidin-4-yl)-4H-1,2,4-triazol-3-yl)-1H-indole] | 277 | 83 | 6970
CC(C)c1c(-c2ccnc3[nH]ncc23)[nH]c2ccc(-c3ccc4c(cnn4C)c3)cc12 [Example 395, 4-(3-isopropyl-5-(1-methyl-1H-indazol-5-yl)-1H-indol-2-yl)-1H-pyrazolo[3,4-b]pyridine] | 486 | 111 | 44000
Cc1cc(-c2[nH]c3ccc(-c4nn5c(c4C(N)=O)CNCC5)cc3c2C(C)C)ccn1 [Example 216, 2-(3-isopropyl-2-(2-methylpyridin-4-yl)-1H-indol-5-yl)-4,5,6,7-tetrahydropyrazolo[1,5-a]pyrazine-3-carboxamide] | 25 | 6.9 | 35000
Cc1cc(-c2[nH]c3ccc(-c4ccnc(N5CCN(C)CC5)c4)cc3c2C(C)C)cc(C)n1 [Example 319, 2-(2,6-dimethylpyridin-4-yl)-3-isopropyl-5-(2-(4-methylpiperazin-1-yl)pyridin-4-yl)-1H-indole] | 7.1 | 9.7 | 517
COc1ccc(-c2[nH]c3ccc(-c4nnc(CN5CC[C@H](NC(C)=O)C5)o4)cc3c2C(C)C)cc1OC [Example 117, (S)—N-(1-((5-(2-(3,4-dimethoxyphenyl)-3-isopropyl-1H-indol-5-yl)-1,3,4-oxadiazol-2-yl)methyl)pyrrolidin-3-yl)acetamide] | 704 | 50 | > 50000
COc1ccc(-c2[nH]c3ccc(-c4ccc(N5CCN(C6CCCC6)CC5)cc4)cc3c2C(C)C)cc1OC [Example 403, 5-(4-(4-cyclopentylpiperazin-1-yl)phenyl)-2-(3,4-dimethoxyphenyl)-3-isopropyl-1H-indole] | 570 | 312 | > 50000
COc1ccc(-c2[nH]c3ccc(-c4ccc(C5=CCNCC5)cc4)cc3c2C)cc1OC [Example 408, 2-(3,4-dimethoxyphenyl)-3-methyl-5-(4-(1,2,3,6-tetrahydropyridin-4-yl)phenyl)-1H-indole] | 8620 | > 50000 | 729
CC(C)c1c(-c2ccnc3[nH]ncc23)[nH]c2ccc(-c3nnc(C4CCCN(C)C4)o3)cc12 (stereo not drawn) [Example 162, 2-(3-isopropyl-2-(1H-pyrazolo[3,4-b]pyridin-4-yl)-1H-indol-5-yl)-5-(1-methylpiperidin-3-yl)-1,3,4-oxadiazole] | 52 | 1.7 | 1380
Cc1cc(-c2[nH]c3ccc(-c4nnc(C5CCCNC5)[nH]4)cc3c2C(C)C)ccn1 (stereo not drawn) [Example 164, 3-isopropyl-2-(2-methylpyridin-4-yl)-5-(5-(piperidin-3-yl)-4H-1,2,4-triazol-3-yl)-1H-indole] | 45 | 27 | 10400
COc1ccc(-c2[nH]c3ccc(-c4ccc(NCCN5CCOCC5)cc4)cc3c2C(C)C)cc1OC [Example 401, 4-(2-(3,4-dimethoxyphenyl)-3-isopropyl-1H-indol-5-yl)-N-(2-morpholinoethyl)aniline] | 541 | 77 | 43300
COc1ccc(-c2[nH]c3ccc(-c4ccc5c(c4)NCCC5)cc3c2C(C)C)cc1OC [Example 161, 7-(2-(3,4-dimethoxyphenyl)-3-isopropyl-1H-indol-5-yl)-1,2,3,4-tetrahydroquinoline] | 2930 | 1980 | 5000
Cc1cc(-c2[nH]c3ccc(-c4nnc(CCc5cccnc5)o4)cc3c2C(C)C)ccn1 [Example 262, 2-(3-isopropyl-2-(2-methylpyridin-4-yl)-1H-indol-5-yl)-5-(2-(pyridin-3-yl)ethyl)-1,3,4-oxadiazole] | 286 | 60 | 5890
COc1ccc(-c2[nH]c3ccc(-c4ccc(CCCN5CCOCC5)cc4)cc3c2C(C)C)cc1OC [Example 398, 4-(3-(4-(2-(3,4-dimethoxyphenyl)-3-isopropyl-1H-indol-5-yl)phenyl)propyl)morpholine] | 559 | 2120 | 2550
COc1ccc(-c2[nH]c3ccc(-c4cnc(N5CCN(C)CC5)nc4)cc3c2C(C)C)cc1OC [Example 432, 2-(3,4-dimethoxyphenyl)-3-isopropyl-5-(2-(4-methylpiperazin-1-yl)pyrimidin-5-yl)-1H-indole] | 65 | 17 | 3240
COc1ccc(-c2[nH]c3ccc(-c4nnc(CNCCOCCO)o4)cc3c2C(C)C)cc1OC [Example 112, 2-(2-(((5-(2-(3,4-dimethoxyphenyl)-3-isopropyl-1H-indol-5-yl)-1,3,4-oxadiazol-2-yl)methyl)amino)ethoxy)ethan-1-ol] | 38 | 82 | > 50000
COc1ccc(-c2[nH]c3ccc(-c4nnc(C5CCN(C6CCN(C(C)C)CC6)CC5)o4)cc3c2C(C)C)cc1OC [Example 22, 2-(2-(3,4-dimethoxyphenyl)-3-isopropyl-1H-indol-5-yl)-5-(1′-isopropyl-[1,4′-bipiperidin]-4-yl)-1,3,4-oxadiazole] | 36 | 11 | 266
Cc1cc(-c2[nH]c3ccc(-c4nnc([C@@H]5CSCN5)o4)cc3c2C(C)C)ccn1 [Example 68, (R)-2-(3-isopropyl-2-(2-methylpyridin-4-yl)-1H-indol-5-yl)-5-(thiazolidin-4-yl)-1,3,4-oxadiazole] | 320 | 41 | 31600
CNCC(=O)N1CCc2cc(-c3ccc4[nH]c(-c5cc(C)nc(C)c5)c(C(C)C)c4c3)sc2C1 [Example 331, 1-(2-(2-(2,6-dimethylpyridin-4-yl)-3-isopropyl-1H-indol-5-yl)-4,7-dihydrothieno[2,3-c]pyridin-6(5H)-yl)-2-(methylamino)ethan-1-one] | 5.2 | 4.9 | 945
CNC(=O)CN1CCC(c2nnc(-c3ccc4[nH]c(-c5ccc(OC)c(OC)c5)c(C(C)C)c4c3)[nH]2)CC1 [Example 130, 2-(4-(5-(2-(3,4-dimethoxyphenyl)-3-isopropyl-1H-indol-5-yl)-4H-1,2,4-triazol-3-yl)piperidin-1-yl)-N-methylacetamide] | 27 | 209 | 7000
Cc1cc(-c2[nH]c3ccc(-c4ccc(N5CCN(CCO)CC5)nc4)cc3c2C(C)C)cc(C)n1 [Example 339, 2-(4-(5-(2-(2,6-dimethylpyridin-4-yl)-3-isopropyl-1H-indol-5-yl)pyridin-2-yl)piperazin-1-yl)ethan-1-ol] | 8.3 | 5.4 | 523
